# Measurements taken from ChEMBL document CHEMBL1141148, “Antidiabetic activity of passive nonsteroidal glucocorticoid receptor modulators” (J Med Chem, 2005).
# Where “and” joins values, the source holds several entries; their conditions need not be identical. Identical values can stand only once.
# Tests used:
# [1] = Insulin levels in ob/ob mice after 13 days of oral dose at 10 mpk b.i.d.; type: ADME; conditions: mouse, in vivo, 10 mg/kg, 312 h
# [2] = Glucose levels in ob/ob mice after 13 days of oral dose at 100 mpk b.i.d.; type: ADME; conditions: mouse, in vivo, 100 mg/kg, 312 h
# [3] = Free fatty acid (FFA) levels in ob/ob mice after 13 days of oral dose at 10 mpk b.i.d.; type: ADME; conditions: mouse, in vivo, 10 mg/kg, 312 h
# [4] = Free levels in ob/ob mice after 13 days of oral dose at 100 mpk b.i.d.; type: ADME; conditions: mouse, in vivo, 100 mg/kg, 312 h
# Mus musculus [5] = species: Mus musculus; assay: Final weight of the ob/ob mice after 13 days of oral treatment at 100 mpk b.i.d.; type: functional
# Mus musculus [6] = species: Mus musculus; assay: Initial weight of the ob/ob mice before oral treatment at 10 mpk b.i.d. for 13 days; type: functional
# [7] = Compound level in plasma in ob/ob mice after 13 days of 100 mpk oral dose of compound; type: ADME; conditions: mouse, 100 mg/kg, read-out: Level
# Mus musculus [8] = species: Mus musculus; assay: Initial weight of the ob/ob mice before oral treatment at 100 mpk b.i.d. for 13 days; type: functional
# [9] = Aspartate aminotransferase (AST) levels in ob/ob mice after 13 days of oral dose at 10 mpk b.i.d.; type: ADME; conditions: mouse, in vivo, 10 mg/kg, 312 h
# Mus musculus [10] = species: Mus musculus; assay: Final weight of the ob/ob mice after 13 days of oral treatment at 10 mpk b.i.d.; type: functional
# [11] = Glucose levels in ob/ob mice after 13 days of oral dose at 10 mpk b.i.d.; type: ADME; conditions: mouse, in vivo, 10 mg/kg, 312 h
# [12] = Alanine aminotransferase (ALT) levels in ob/ob mice after 13 days of oral dose at 10 mpk b.i.d.; type: ADME; conditions: mouse, in vivo, 10 mg/kg, 312 h
# [13] = Free fatty acid (FFA) levels in ob/ob mice after 14 days of oral dose at 30 mpk b.i.d.; type: ADME; conditions: mouse, in vivo, 30 mg/kg, 336 h
# [14] = Glycogen levels in ob/ob mice after 14 days of oral dose at 100 mpk b.i.d.; type: ADME; conditions: mouse, in vivo, 100 mg/kg, 336 h
# [15] = Plasma protein binding of tritium labeled compound in mouse plasma was determined; type: ADME, cell-free; conditions: read-out: Protein binding (converted)
# [16] = Compound level in liver in ob/ob mice after 13 days of […] mpk oral dose of compound; type: ADME, tissue-based; conditions: mouse, 30 mg/kg, read-out: Level
# [17] = Liver TAT levels in ob/ob mice after 14 days of oral dose at 30 mpk b.i.d.; type: ADME, tissue-based; conditions: mouse, in vivo, 30 mg/kg, 336 h
# [18] = Liver TAT levels in ob/ob mice after 14 days of oral dose at 100 mpk b.i.d.; type: ADME, tissue-based; conditions: mouse, in vivo, 100 mg/kg, 336 h
# [19] = Free fatty acid (FFA) levels in ob/ob mice after 30 days of oral dose at 100 mpk b.i.d.; type: ADME; conditions: mouse, in vivo, 100 mg/kg, 720 h
# [20] = Cholesterol levels in ob/ob mice after 30 days of oral dose at 30 mpk b.i.d.; type: ADME; conditions: mouse, in vivo, 30 mg/kg, 720 h
# [21] = Triglyceride levels in ob/ob mice after 30 days of oral dose at 30 mpk b.i.d.; type: ADME; conditions: mouse, in vivo, 30 mg/kg, 720 h
# [22] = Area under the concentration-time curve in SD rats after 5 mg/kg oral dose; type: ADME, organism-based; set-up: dose 5 mg/kg, route oral; conditions: rat, in vivo
# Mus musculus [23] = species: Mus musculus; assay: Final weight of the ob/ob mice after 14 days of oral treatment at 100 mpk b.i.d.; type: functional
# [24] = HbA1c levels in ob/ob mice after 30 days of oral dose at 100 mpk b.i.d.; conditions: mouse, in vivo, 100 mg/kg, 720 h
# [25] = Plasma protein binding of tritium labeled compound in rat plasma was determined; type: ADME, cell-free; conditions: read-out: Protein binding
# [26] = Plasma protein binding of tritium labeled compound in human plasma was determined; type: ADME, cell-free; conditions: read-out: Protein binding
# [27] = Glucose levels in ob/ob mice after 14 days of oral dose at 30 mpk b.i.d.; type: ADME; conditions: mouse, in vivo, 30 mg/kg, 336 h
# Mus musculus [28] = species: Mus musculus; assay: Final weight of the ob/ob mice after 14 days of oral treatment at 30 mpk b.i.d.; type: functional
# [29] = HbA1c levels in ob/ob mice after 30 days of oral dose at 30 mpk b.i.d.; type: ADME; conditions: mouse, in vivo, 30 mg/kg, 720 h
# Mus musculus [30] = species: Mus musculus; assay: Initial weight of the ob/ob mice before oral treatment at 100 mpk b.i.d. for 14 days; type: functional
# [31] = Oral bioavailability in SD rats after 5 mg/kg oral dose; type: ADME, organism-based; conditions: Sprague-Dawley, rat, in vivo
# [32] = Glucose levels in ob/ob mice after 14 days of oral dose at 100 mpk b.i.d.; type: ADME; conditions: mouse, in vivo, 100 mg/kg, 336 h
# [33] = Aspartate aminotransferase /alanine aminotransferase levels in ob/ob mice after 30 days of oral dose at 100 mpk b.i.d.; type: ADME; conditions: mouse, in vivo, 100 mg/kg, 720 h
structure (smiles),measurement,setting,value
Cc1c(NS(C)(=O)=O)cccc1N(Cc1ccccc1)Cc1ccc(Oc2ccc(OCC(=O)O)cc2)cc1,Level,[1],0.02 µg/mL
same,Level,[2],2900 µg/mL
same,Level,[3],1.3 mequiv/L
same,Level,[4],1 mequiv/L
same,Weight,Mus musculus [5],46.6 g
same,Weight,Mus musculus [6],45.4 g
same,concentration at 312 h,[7],1.6 µg/mL
same,Weight,Mus musculus [8],46 g
same,Level,[9],420 units/mL
same,Weight,Mus musculus [10],49.3 g
same,Level,[11],3330 µg/mL
same,Level,[12],786 units/mL and 282 units/mL
Cc1c(NS(C)(=O)=O)cccc1N(Cc1ccc(Oc2ccc(F)c(OCC(=O)O)c2)cc1)Cc1ccc(F)cc1F,Level,[13],0.99 mequiv/L
same,Level,[14],44.2 mg/g
same,fraction unbound,[15],0.003
same,concentration at 312 h,[16],20000 ng/g
same,Level,[17],1.7 nmol ofpHB/min/mgof protein
same,Level,[18],2.4 nmol ofpHB/min/mgof protein
same,Level,[19],1.27 mequiv/L
same,Level,[20],2660 µg/mL
same,Level,[21],2140 µg/mL
same,AUC,[22],3850 ng·h/mL
same,Weight,Mus musculus [23],46.9 g
same,Level,[24],7.7%
same,fraction unbound,[25],0.001
same,fraction unbound,[26],0.001
same,Level,[27],3140 µg/mL
same,Weight,Mus musculus [28],49.2 g
same,Level,[29],8.9%
same,Weight,Mus musculus [30],40 g
same,bioavailability,[31],40%
same,Level,[32],2330 µg/mL
same,Level,[33],303 units/mL
